# Paper PMC12362433, “Systematic Determination of the Impact of Structural Edits on Peptide Accumulation into Mycobacteria” (ACS Chemical Biology, 2025)
# Bridge positions count the residues as written; N and C are the ends. Square brackets hold non-standard residues; d marks the D form. Peptide text beside a SMILES is read from it. * marks the point of attachment. Lys(N3) = [N-]=[N+]=NCCCC[C@H](N)C(=O)O; Azidoacetyl = [N-]=[N+]=NCC(=O)*; NMeF = CN[C@@H](Cc1ccccc1)C(=O)O; NMeT = CN[C@H](C(=O)O)[C@@H](C)O; NMeL = CN[C@@H](CC(C)C)C(=O)O; dNMeL = CN[C@H](CC(C)C)C(=O)O; NMeK = CN[C@@H](CCCCN)C(=O)O; NMeV = CN[C@H](C(=O)O)C(C)C
# Experiments:
# Msm = format: cell-based, Mycobacterium smegmatis; settings: against Msm; for MIC value: 48 h, three biological replicates
# Experimental: Minimum inhibitory concentration (MIC) assay. Msm cells were inoculated from the glycerol stock to the according media and grown for 24 hours until 0.5- 0.6 OD. Testing peptides were dissolved in the 7H9 growth media mentioned above and made into serial dilutions from 128 µM. 200 µL of each concentration was added to a deep well 96-well plate – with each concentration added in triplicates. The cells were diluted […] to OD of around 0.05 with fresh 7H9 growth media. […] of diluted cells were added to the deep well plate each well and mixed well with the peptide solution. The plate was covered by an adhesive porous film and incubated at 37 °C with shaking at 250 rpm for 48 h. The contents from each well were then transferred to a flat-bottom 96-well plate for MIC value determination. MIC values were determined both visually and readings of OD (wells OD < 0.1) from a Biotek Synergy H1 microplate reader at 600 nm.
# Msm cells = settings: 25 μM TetD labeling; microscopy and EtBr accumulation/efflux
# Experimental: Ethidium bromide (EtBr) whole-cell accumulation assay. To a 96-well plate, 90 µL of
# T etD -modified Msm cells were added in triplicate. Next, 5 µL of 1 mM peptide stock
# solutions were added to yield a final concentration of 50 µM. The volume in each well was
# made up to 100 µL using PBS. To the blank and PBS control wells, 10 µL of PBS was
# added at this point. For the blank wells, 90 µL of unlabeled cells were added in triplicate.
# The plates were then incubated at 37 °C for the same duration as the corresponding PAC -
# MAN assay incubation duration for that library. The cells were centrifuged for 2 min at
# 3000× g, and the supernatant was discarded. The pellets were then washed with 100 µL
# PBST twice and finally resuspended in 100 µL of PBST. 95 µL of these cells were then
# transferred to corresponding wells in a 96 -well, black, flat-bottomed plate. To each well,
# 5 µL of 100 µM EtBr (5 µM final) was added. The fluorescent intensities were measured
# by a Biotek Synergy H1 microplate reader 60 m post -treatment with EtBr, with continuous
# orbital shaking. Wavelengths: ethidium bromide, excitation 530 nm/emission 590 nm.
# [1] = Serum stability assay in mouse serum; format: in vitro ADME
# Experimental: Serum stability assay. Time course degradation in mouse serum was evaluated for peptides Lin0, Cyc0, Nmet0 and Nmet9. Compounds were incubated in mouse serum at a concentration of 1.0 mM to a total of 200 μL at 37 °C. At each time point (0, 15, 30, 60 min), 4 0 μL of the solution was aliquoted and diluted in a 1:1 solution o f H2O/CH3CN (101 μL) containing trichloroacetic acid (9 μL) and 100 μM of internal standard Fm o c -L-phenylalanine. This mixture was incubated in ice for 5 min to precipitate serum proteins.
# The samples were then centrifuged at 21,000×g for 5 min. 140 μL of the supernatant was then transferred to a filter tube and centrifuged again at 21,000× g for 5 min to filter. 110 μL of the filtrate was then analyzed using Phenomenex Luna 5 µm C8(2) on RP-HPLC; gradient elution in H2O/CH 3CN with 0.1% TFA at 1 mL/min. Peptide identity was confirmed via peak collection and subsequent matrix-assisted laser desorption ionization time-of-flight (MALDI-TOF) mass spectroscopy (Shimadzu 8020). To eliminate variations in the overall signal intensity, area under the curve (AUC) for the peptides of interest at each time point was normalized to the AUC of the internal standard Fm o c -L-phenylalanine, the concentration of which was predetermined. These normalized AUC values were then further normalized to the “0 min” time point which was set to 100%. […]
SMILES,MIC value (Msm) [µM],other results
CC(C)C[C@H](NC(=O)[C@@H]1CCCN1C(=O)[C@H](CC(C)C)NC(=O)[C@@H](NC(=O)[C@@H]1CCCN1C(=O)[C@@H](NC(=O)CN=[N+]=[N-])C(C)C)[C@@H](C)O)C(=O)N[C@H](C(=O)N1CCC[C@H]1C(=O)N[C@H](CC(C)C)C(=O)NCC(N)=O)C(C)C [grisLin] (Azidoacetyl-VPTLPLVP[dL]G-NH2),> 64,–
CC(C)C[C@@H]1NC(=O)[C@@H]2CCCN2C(=O)[C@H](CC(C)C)NC(=O)[C@@H](NC(=O)[C@@H]2CCCN2C(=O)[C@@H](NC(=O)CN=[N+]=[N-])C(C)C)[C@@H](C)OC(=O)CNC(=O)[C@@H](CC(C)C)NC(=O)[C@@H]2CCCN2C(=O)[C@H](C(C)C)NC1=O [grisCyc] (Azidoacetyl-VPTLPLVP[dL]G; ester 3-C),> 64,–
C[C@H](NC(=O)CCC(=O)N1Cc2ccccc2C#Cc2ccccc21)C(=O)N[C@H](CCC(=O)N[C@@H](CCCCN)C(=O)N[C@H](C)C(=O)O)C(N)=O [TetD],–,cell morphology and cell envelope integrity after labeling (Msm cells): no significant changes in cell morphology or cell envelope integrity
CC(C)C[C@@H](C(=O)N(C)[C@@H](CCCCN)C(=O)N(C)[C@@H](CC(C)C)C(=O)N(C)[C@@H](Cc1ccccc1)C(N)=O)N(C)C(=O)[C@H](CCCCN)N(C)C(=O)CN=[N+]=[N-] [Nmet5] (Azidoacetyl-[NMeK][NMeL][NMeK][NMeL][NMeF]-NH2),–,"serum stability (in words) ([1]; mouse serum, 37 °C, over 1 h): considerably greater serum stability than peptide Nmet0"
CC(C)C[C@@H]1NC(=O)[C@@H]2CCCN2C(=O)[C@H](CC(C)C)NC(=O)[C@@H](N(C)C(=O)[C@@H]2CCCN2C(=O)[C@H](C(C)C)N(C)C(=O)CN=[N+]=[N-])[C@@H](C)OC(=O)CNC(=O)[C@@H](CC(C)C)N(C)C(=O)[C@@H]2CCCN2C(=O)[C@H](C(C)C)N(C)C1=O [grisMeCyc] (Azidoacetyl-[NMeV]P[NMeT]LPL[NMeV]P[dNMeL]G; ester 3-C),2,–
CC(=O)N[C@@H](CCCCN=[N+]=[N-])C(=O)N[C@@H](CC(C)C)C(=O)N[C@@H](CO)C(=O)N[C@@H](CCCCN)C(=O)N[C@@H](CO)C(=O)N[C@@H](Cc1ccccc1)C(N)=O [Lin0] (Ac-[Lys(N3)]LSKSF-NH2),–,time to full degradation in serum [1]: ≤ 1 h
CC(C)C[C@H](NC(=O)[C@@H]1CCCN1C(=O)[C@H](CC(C)C)NC(=O)[C@H]([C@@H](C)O)N(C)C(=O)[C@@H]1CCCN1C(=O)[C@H](C(C)C)N(C)C(=O)CN=[N+]=[N-])C(=O)N(C)[C@H](C(=O)N1CCC[C@H]1C(=O)N(C)[C@H](CC(C)C)C(=O)NCC(N)=O)C(C)C [grisMeLin] (Azidoacetyl-[NMeV]P[NMeT]LPL[NMeV]P[dNMeL]G-NH2),> 64,fold increase in MIC value relative to grisMeCyc (Msm; loss of macrocyclization): > 32 fold
